# Source: PMC9551036, “A selective and orally bioavailable VHL-recruiting PROTAC achieves SMARCA2 degradation in vivo” (Nature Communications, 2022)
# Read-outs that look alike come from different tables or passages of the source.
# Experiment: Cell viability assay (CellTiter Glo) in a panel of cell lines
# Type: cell-based, human
# Conditions: for EC50: Homo sapiens; for viability at 1 µM / viability at 0.316 µM / viability at 1.25 µM / viability at 0.313 µM / viability at 0.1 µM: human; for viability at 1 µM: log10 conc -6 mol/l; for viability at 0.316 µM: log10 conc -6.50031 mol/l; for viability at 1.25 µM: log10 conc -5.90309 mol/l; for viability at 0.313 µM: log10 conc -6.50446 mol/l; for viability at 0.1 µM: log10 conc -7 mol/l
# Description: 500–2000 cells were seeded in white, clear bottom 96-well plates (Corning or Perkin Elmer) in 180–200 µl medium per well. The next day, compounds were added using a digital dispenser and a T0 sample was measured for reference. Cells were incubated for 144–192 h, and viability (luminescence) was measured using CellTiter Glo or CellTiter Glo 2.0 (Promega) according to manufacturer’s instructions after equilibrating cells and reagents at room temperature and 10–20 min incubation time while shaking.
smiles,measurement,setting,value
Cc1ncsc1-c1ccc(C(CCC(C)CCN2CCC(c3ccc4c(c3)n(C3CCCC3)c3nc(=O)c5c(Br)cccc5n43)CC2)NC(=O)C2CC(O)CN2C(=O)C(NC(=O)C2(F)CC2)C(C)(C)C)cc1 (stereo not shown) [ACBI2],EC50,"A549, A549, read-out: LogEC50 (viability) (converted)",29.3 nM
same,EC50,"A549, A549, values derived from curves in Extended Fig 4b, read-out: EC50 mean",29.3 nM
same,EC50,"HCC364, HCC-364, read-out: LogEC50 (viability) (converted)",70.8 nM
same,EC50,"HCC364, HCC-364, values derived from curves in Extended Fig 4b, read-out: EC50 mean",70.8 nM
same,EC50,"HCC515, HCC-515, read-out: LogEC50 (viability) (converted)",2.11 nM
same,EC50,"HCC515, HCC-515, values derived from curves in Extended Fig 4b, read-out: EC50 mean",2.11 nM
same,EC50,"HCC4006, HCC4006, read-out: LogEC50 (viability) (converted)",191 nM
same,EC50,"HCC4006, HCC4006, values derived from curves in Extended Fig 4b, read-out: EC50 mean",191 nM
same,EC50,"LXFA 629L, LXFA_629L, read-out: LogEC50 (viability) (converted)",16.5 nM
same,EC50,"LXFA 629L, LXFA_629L, values derived from curves in Extended Fig 4b, read-out: EC50 mean",16.5 nM
same,EC50,"LXFA_923L, read-out: LogEC50 (viability) (converted)",4.36 nM
same,EC50,"LXFA_923L, values derived from curves in Extended Fig 4b, read-out: EC50 mean",4.35 nM
same,EC50,"LXFL 529L, LXFL_529L, read-out: LogEC50 (viability) (converted)",0.382 nM
same,EC50,"LXFL 529L, LXFL_529L, values derived from curves in Extended Fig 4b, read-out: EC50 mean",0.382 nM
same,EC50,"Lu-99, LU99, read-out: LogEC50 (viability) (converted)",132 nM
same,EC50,"Lu-99, LU99, values derived from curves in Extended Fig 4b, read-out: EC50 mean",132 nM
same,EC50,"MP38, read-out: LogEC50 (viability) (converted)",8.75 nM
same,EC50,"MP38, values derived from curves in Extended Fig 4b, read-out: EC50 mean",8.75 nM
same,EC50,"NCI-H1355, NCI-H1355, read-out: LogEC50 (viability) (converted)",15.6 nM
same,EC50,"NCI-H1355, NCI-H1355, values derived from curves in Extended Fig 4b, read-out: EC50 mean",15.6 nM
same,EC50,"OV-90, OV-90, read-out: LogEC50 (viability) (converted)",67.5 nM
same,EC50,"OV-90, OV-90, values derived from curves in Extended Fig 4b, read-out: EC50 mean",67.5 nM
same,EC50,"SK-MEL-5, SK-MEL-5, read-out: LogEC50 (viability) (converted)",2.82 nM
same,EC50,"SK-MEL-5, SK-MEL-5, values derived from curves in Extended Fig 4b, read-out: EC50 mean",2.82 nM
same,viability at 1 µM,"A549 cells, A549",44%
same,viability at 0.316 µM,"A549 cells, A549",43.1%
same,viability at 1.25 µM,"HCC4006 cells, HCC4006",42.2%
same,viability at 0.313 µM,"HCC4006 cells, HCC4006",53.4%
same,viability at 1.25 µM,"HCC-364 cells, HCC-364",14.6%
same,viability at 0.313 µM,"HCC-364 cells, HCC-364",20.4%
same,viability at 1 µM,"HCC-515 cells, HCC-515",15%
same,viability at 0.316 µM,"HCC-515 cells, HCC-515",22.4%
same,viability at 1.25 µM,"KYSE-30 cells, KYSE-30",91.1%
same,viability at 0.313 µM,"KYSE-30 cells, KYSE-30",92.8%
same,viability at 0.313 µM,"LU99 cells, LU99",30.1%
same,viability at 1 µM,"LXFA 629L cells, LXFA_629L",14.9%
same,viability at 0.316 µM,"LXFA 629L cells, LXFA_629L",24.7%
same,viability at 1 µM,"LXFA 923L cells, LXFA_923L",13.6%
same,viability at 0.316 µM,"LXFA 923L cells, LXFA_923L",21.4%
same,viability at 1 µM,"LXFL 529L cells, LXFL_529L",4.39%
same,viability at 0.316 µM,"LXFL 529L cells, LXFL_529L",6.27%
same,viability at 0.1 µM,"LXFL 529L cells, LXFL_529L",9.52%
same,viability at 1 µM,"LXFL 1121L cells, LXFL_1121L",90.4%
same,viability at 0.316 µM,"LXFL 1121L cells, LXFL_1121L",92.1%
same,viability at 0.1 µM,"LXFL 1121L cells, LXFL_1121L",89.5%
same,viability at 1 µM,"MP38 cells, MP38",1.87%
same,viability at 0.316 µM,"MP38 cells, MP38",0.609%
same,viability at 0.1 µM,"MP38 cells, MP38",1.6%
same,viability at 1.25 µM,"NCI-H23 cells, NCI-H23",75.3%
